In patent US8772499B2, “TRPV3 modulators” (AbbVie Inc., priority 2011, dated 2014):
Like-named read-outs stand apart in the source and are kept apart here.

Legend:
[1] = biological target: T1, human TRPV3 (Homo sapiens, UniProt Q8NET8); assay: In vitro antagonism of recombinant human TRPV3 activation (FLIPR Tetra calcium assay); assay type: cell-based; conditions: HEK293 cells stably expressing human TRPV3, agonist 2-APB at 80 μM
T1 construct: expressed in transfected cells
T1 sequence (Q8NET8 1-790): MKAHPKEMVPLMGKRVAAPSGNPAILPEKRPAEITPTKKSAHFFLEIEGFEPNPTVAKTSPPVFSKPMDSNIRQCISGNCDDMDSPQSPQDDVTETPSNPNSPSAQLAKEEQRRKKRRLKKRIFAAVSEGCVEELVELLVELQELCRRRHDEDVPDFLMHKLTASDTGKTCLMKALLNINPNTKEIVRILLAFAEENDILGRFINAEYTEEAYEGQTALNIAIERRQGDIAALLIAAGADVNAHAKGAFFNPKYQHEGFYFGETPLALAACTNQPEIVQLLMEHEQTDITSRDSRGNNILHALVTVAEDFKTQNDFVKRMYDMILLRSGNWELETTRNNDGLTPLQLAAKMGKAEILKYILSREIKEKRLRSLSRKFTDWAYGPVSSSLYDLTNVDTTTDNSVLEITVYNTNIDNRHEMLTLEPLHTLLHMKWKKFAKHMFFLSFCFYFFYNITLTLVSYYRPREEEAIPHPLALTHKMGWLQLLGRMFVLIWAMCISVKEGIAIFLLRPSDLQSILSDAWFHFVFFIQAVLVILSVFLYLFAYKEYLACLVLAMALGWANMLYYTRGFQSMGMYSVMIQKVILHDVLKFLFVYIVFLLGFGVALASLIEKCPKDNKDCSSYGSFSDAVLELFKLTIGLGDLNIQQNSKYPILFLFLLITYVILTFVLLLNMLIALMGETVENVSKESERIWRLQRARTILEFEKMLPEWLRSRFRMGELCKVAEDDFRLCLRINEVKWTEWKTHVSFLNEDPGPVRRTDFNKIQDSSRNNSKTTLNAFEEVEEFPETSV
Method in brief: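 HEK293 cells stably expressing human TRPV3, loaded with Calcium-4 dye for 90–120 min, received compound in DPBS, then 80 μM 2-APB (EC80) 3 min later. Max-minus-min fluorescence expressed as % of 2-APB response without antagonist; IC50 values mostly averages of n≥2 runs.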

[2] = In vitro human microsomal stability assay; assay type: in vitro ADME; conditions: human, microsomes, 0.5 h, 0.5 μM, pH 7.4
Method in brief: (§1)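 Metabolic stability measured in Sprague-Dawley rat or human liver microsomes at 37 °C. Reactions supplemented with NADPH.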

[3] = In vitro rat microsomal stability assay; assay type: in vitro ADME, rat (Sprague-Dawley); conditions: Sprague-Dawley, rat, microsomes, 0.5 h, 0.5 μM, pH 7.4
Method in brief: as §1

[4] = actual measured value shown parenthetically, in most cases average of at least two runs, read-out: IC50

SMILES	IC50 [1, 4] [nM]	HUMAN MICROSOMAL STABILITY (% REMAINING AFTER 30 MINUTES) [2] [%]	RAT MICROSOMAL STABILITY (% REMAINING AFTER 30 MINUTES) [3] [%]	IC50 ([1]; reported range, read-out: IC50 (range class)) [nM]
OC(c1ccccn1)C1(c2cccc(Cl)c2)CCCO1 (single isomer, unassigned) [Example 104, (anti)-[2-(3-chlorophenyl)tetrahydrofuran-2-yl](pyridin-2-yl)methanol]	280	15	0.42	–
OC(c1ccccn1)C1(c2cccc(OC(F)(F)F)c2)CCOCC1 (stereo not shown) [Example 66, pyridin-2-yl{4-[3-(trifluoromethoxy)phenyl]tetrahydro-2H-pyran-4-yl}-methanol]	1520	31	23	–
CC(c1ccc(Cl)cc1)C1(C(O)c2ccccn2)CCC1 (stereo not shown) [Example 49, {1-[1-(4-chlorophenyl)ethyl]cyclobutyl}(pyridin-2-yl)methanol]	3270	15	0.13	–
OC(c1ccccn1)C1(c2cccc(C(F)(F)F)c2)CCCO1 (single isomer, unassigned) [Example 106, (anti)-pyridin-2-yl{2-[3-(trifluoromethyl)phenyl]tetrahydrofuran-2-yl}-methanol]	210	3.9	1.6	–
O[C@H](c1ncccn1)C1(c2ccc(Cl)c(Cl)c2)CCC1 [Example 39, (S)-[1-(3,4-dichlorophenyl)cyclobutyl](pyrimidin-2-yl)methanol]	740	51	11	–
Cc1cccc(C2(C(O)c3ccccn3)CCCO2)c1 (stereo not shown) [Example 91, [2-(3-methylphenyl)tetrahydrofuran-2-yl](pyridin-2-yl)methanol]	330	46	1.0	–
OC(c1ccccn1)C1(c2cccc(Cl)c2)CCCO1 (single isomer, unassigned) [Example 105, (syn)-[2-(3-chlorophenyl)tetrahydrofuran-2-yl](pyridin-2-yl)methanol]	7570	42	0.040	–
Cc1ccccc1C(C)C1(C(O)c2ccccn2)CCC1 (stereo not shown) [Example 45, {1-[1-(2-methylphenyl)ethyl]cyclobutyl}(pyridin-2-yl)methanol]	2220	0.03	0.02	–

The next lines start with the values.

IC50 [1, 4] [nM]	HUMAN MICROSOMAL STABILITY (% REMAINING AFTER 30 MINUTES) [2] [%]	RAT MICROSOMAL STABILITY (% REMAINING AFTER 30 MINUTES) [3] [%]	IC50 ([1]; reported range, read-out: IC50 (range class)) [nM]	SMILES
250	>85	44	–	OC1CC(c2cncc(C(F)(F)F)c2)(C(O)c2ccccn2)C1 [Example 304, trans-3-[(S)-hydroxy(pyridin-2-yl)methyl]-3-[5-(trifluoromethyl)pyridin-3-yl]cyclobutanol]
200	72	73	–	OC1CC(c2ccc(F)c(Cl)c2)([C@H](O)c2ccccn2)C1 (stereo partly drawn) [Example 276, 3-(3-chloro-4-fluorophenyl)-3-[(S)-hydroxy(pyridin-2-yl)methyl]-cyclobutanol]
1000	41	13	–	CC1(O)CC(c2cncc(C(F)(F)F)c2)(C(O)c2ccccn2)C1 (single isomer, unassigned) [Example 308]
> 20000	>85	16	> 20000	OC(c1ccccn1)C1(C2CCOC2)CCC1 (stereo not shown) [Example 284, pyridin-2-yl[1-(tetrahydrofuran-3-yl)cyclobutyl]methanol]
